In patent US20260374792A1, “PHENYL-FREE BISCATIONIC QUATERNARY PHOSPHONIUM COMPOUNDS AS ANTIMICROBIAL AGENTS” (priority 2022, published 2026) one finds MIC and Lysis20 data, which are given here for seven molecules.

One data set relates to MSSA (SH1000). In words: MIC against methicillin-susceptible S. aureus (MSSA). It is filed as cell-based. The settings on record: Staphylococcus aureus. As to the method: (§1) The term “minimum inhibitory concentration (MIC)” means the lowest concentration of an antimicrobial agent that will inhibit the visible growth of a microorganism after overnight incubation. MIC values against bacteria, for example, the Gram-positive Staphylococcus aureus and Enterococcus faecalis and the Gram-negative Escherichia coli and Pseudomonas aeruginosa were determined by standard methods. See also P. A. Wayne, Methods for Dilution Antimicrobial Tests for Bacteria that Grow Aerobically; Approved Standard, Ninth Edition, 2012, CLSI Document M07-A9, Vol. 32 No. 2.
(§2) Biological testing procedures were adapted from prior work by Melander and coworkers. For all biological assays, laboratory strains of methicillin-susceptible Staphylococcus aureus MSSA (SH1000), Staphylococcus aureus CA-MRSA (USA300-0114), Staphylococcus aureus HA-MRSA (ATCC 33591), Escherichia coli (MC4100), Enterococcus faecalis (OG1RF), Acinetobacter baumannii (ATCC 17978), were grown with shaking at 37 °C overnight from freezer stocks in 5 mL of the indicated media: SH1000, OG1RF, MC4100, USA300-0114, and ATCC 17978 were grown in BDTM Mueller-Hinton broth (MHB), whereas ATCC 33591 was grown in BDTM tryptic soy broth (TSB). The inoculum were then streaked onto Mueller-Hinton agar (MHA) plates and grown overnight at 37 °C. From the plates, single colonies were selected, diluted into 50 mL of fresh media and grown overnight at 37 °C with shaking for use in the MIC assays. Optical density (OD) measurements were obtained using a SpectraMax iD3 plate reader (Molecular Devices, United States).
(§3) Compounds were serially diluted two-fold from stock solutions (1.0 mM) to yield twelve 100 μL test concentrations, wherein the starting concentration of dimethyl sulfoxide (DMSO) was 2.5%. Overnight S. aureus, E. faecalis, E. coli, A. baumannii, USA300-0114 (CA-MRSA), and ATCC 33591 (HA-MRSA) cultures were diluted to ca. 10^6 CFU/mL in MHB or TSB and regrown to mid-exponential phase, as determined by optical density recorded at 600 nm (OD600). All cultures were then diluted again to ca. 10^6 CFU/mL and 100 μL were inoculated into each well of a U-bottom 96-well plate (Corning, 351177) containing 100 μL of compound solution. Plates were incubated statically at 37 °C for 72 hours upon which wells were evaluated visually for bacterial growth. The MIC was determined as the lowest concentration of compound resulting in no bacterial growth visible to the naked eye, based on the highest value in three independent experiments. Aqueous DMSO controls were conducted as appropriate for each compound.
(§4) The prepared library of biscationic amphiphilic compounds was assessed for performance as antibacterial disinfectants by determining the minimum inhibitory concentration (MIC) for each against a panel of bacteria. The bacteria selected for the study were chosen to evaluate the broad spectrum antimicrobial performance of the QPCs, and therefore, included both Gram-positive and Gram-negative bacterial strains, including those with known antimicrobial resistance mechanisms. These bacteria include the Gram-positive strains of methicillin-susceptible Staphylococcus aureus [MSSA; SH1000], community-acquired methicillin-resistant Staphylococcus aureus [CA-MRSA; USA 300-0114], hospital-acquired methicillin-resistant Staphylococcus aureus [HA-MRSA; ATCC 33591] and the […], Escherichia coli [MC4100], Acinetobacter baumannii [ATCC 17498] and Pseudomonas aeruginosa [PAO1].

The subject of a further data set is CA-MRSA (USA300-0114). In words: MIC against community-acquired methicillin-resistant S. aureus (CA-MRSA). It counts as cell-based. The settings on record: Staphylococcus aureus, 72 h. Here is the method:
as §1, §2, §3, §4

For another data set, the system named is HA-MRSA (ATCC 33591). The data set is described as follows: MIC against hospital-acquired methicillin-resistant S. aureus (HA-MRSA). The conditions noted are these: Staphylococcus aureus, 72 h. It is filed as cell-based. As to the method:
as §1, §2, §3, §4

The test system of a further data set is E. faecalis (OG1RF). The data set is described as follows: MIC against E. faecalis. The conditions noted are these: Enterococcus faecalis, 72 h. It is filed as cell-based. As to the method: as §1, §2, §3, §4
A further data set deals with E. coli (MC4100). In words: MIC against E. coli. It is filed as cell-based. The conditions noted are these: Escherichia coli, 72 hours, 37 °C. As to the method:
as §1, §2, §3, §4

The test system of another data set is A. baumannii. The data set is described as follows: MIC against A. baumannii. It is filed as cell-based. The settings on record: Acinetobacter baumannii, 72 h. Here is the method:
as §1, §2, §3, §4

In another data set the test system is P. aeruginosa (PAO1). The data set is described as follows: MIC against P. aeruginosa. It counts as cell-based. The settings on record: Pseudomonas aeruginosa. As to the method: as §1, §2, §3, §4
The next data set relates to red blood cells. The data set is described as follows: Red Blood Cell (RBC) Lysis Assay (lysis20). It is filed as cell-based, sheep. The conditions noted are these: concentration inducing 20% RBC lysis; sheep blood, 1 hour, 37 °C. As to the method: RBC lysis assays were performed on mechanically defibrinated sheep blood (Hemostat Labs: DSB030). An aliquot of 1.5 mL blood was placed into a microcentrifuge tube and centrifuged at 3,800 rpm for ten minutes. The supernatant was removed, and the cells were resuspended with 1 mL of phosphate-buffered saline (PBS). The suspension was centrifuged as described above, the supernatant was removed, and cells were resuspended 4 additional times in 1 mL PBS. The final cell suspension was diluted twentyfold with PBS. Compounds were serially diluted with PBS two-fold from stock solutions (1.0 mM) to yield 100 μL of twelve test concentrations on a flat-bottom 96-well plate (Corning, 351172), wherein the starting concentration of DMSO was 2.5%. To each of the wells, 100 μL of the twentyfold suspension dilution was then inoculated. TritonX (1% by volume) served as a positive control (100% lysis marker) and sterile PBS served as a negative control (0% lysis marker). Samples were then placed in an incubator at 37 °C and shaken at 200 rpm. After 1 hour, the samples were centrifuged at 3,800 rpm for ten minutes. The absorbance of the supernatant was measured with a UV spectrometer at a 540 nm wavelength. The concentration inducing 20% RBC lysis was then calculated for each compound based upon the absorbances of the TritonX and PBS controls. Aqueous DMSO controls were conducted as appropriate for each compound.
The potential cytotoxicity of the compounds was also considered with the evaluation of hemolysis (lysis20) assays with 20% lysis of red blood cells serving as an indicator of potentially toxic compounds. Finally, the bioactivity of these compounds were benchmarked against a commercial benzalkonium chloride source (BAC; 70% benzyldimethyldodecylammonium chloride, and 30% benzyldimethyltetradecylammonium chloride) as well as some previously reported disinfectant compounds from the inventors' groups; included were bisQPC ^PhP6P-10,10 as well as ^PhP2P-10,10 and 12(2)12. A detailed description of the experimental procedures used to evaluate bioactivity and hemolysis assays are described above.

[1] abbreviates: MSSA (SH1000), 72 hours, 37 °C, read-out: MIC.
Setting [2] is: P. aeruginosa (PAO1), 72 hours, 37 °C, read-out: MIC.

Molecules are shown by their SMILES. Read-outs that look alike come from different tables or passages of the source.

What is called MIC is the lowest concentration that inhibits growth of the organism.

Regarding `CCCCCCCCCC[P+](CC)(CC)CC[P+](CC)(CC)CCCCCCCCCC` [^EtP2P-10,10], the MIC with MSSA (SH1000) (setting [1]) was 2 µM; in the data set on CA-MRSA (USA300-0114), 1 µM; against HA-MRSA (ATCC 33591) it was 8 µM; with E. faecalis (OG1RF) it was 16 µM; in the data set with E. coli (MC4100), 16 µM; in the data set on A. baumannii, 32 µM. In the data set on P. aeruginosa (PAO1) (setting [2]), the MIC is 32 µM. Also, the Lysis20 in the data set with red blood cells came out at 63 µM.
Consider `CCCCCCCCCCC[P+](CC)(CC)CC[P+](CC)(CC)CCCCCCCCCCC` [^EtP2P-11,11], for which the MIC with MSSA (SH1000) (setting [1]) amounted to 1 µM; with CA-MRSA (USA300-0114) it was 1 µM; against HA-MRSA (ATCC 33591), 2 µM; against E. faecalis (OG1RF), 4 µM; in the data set with E. coli (MC4100), 4 µM; in the data set with A. baumannii it was 8 µM. For the same molecule, the MIC in the data set with P. aeruginosa (PAO1) (setting [2]) turned out to be 16 µM. In the data set with red blood cells, this molecule came in with a Lysis20 of 16 µM.
`CCCCCCCCCCCCCC[P+](CC)(CC)CC[P+](CC)(CC)CCCCCCCCCCCCCC` [^EtP2P-14,14]: the MIC in the data set with MSSA (SH1000) (setting [1]) stood at 8 µM; against CA-MRSA (USA300-0114), 4 µM; against HA-MRSA (ATCC 33591) it was 4 µM; in the data set with E. faecalis (OG1RF), 63 µM; with E. coli (MC4100), 8 µM; against A. baumannii, 32 µM. Moreover, in the data set on P. aeruginosa (PAO1) (setting [2]), the MIC came out at 63 µM. This molecule came in with a Lysis20 in the data set on red blood cells of 8 µM.
Take `CCCCCCCCCCCCCCCC[P+](CC)(CC)CC[P+](CC)(CC)CCCCCCCCCCCCCCCC` [^EtP2P-16,16]: the MIC in the data set with MSSA (SH1000) (MSSA, 72 h) is 16 µM; in the data set on CA-MRSA (USA300-0114) it was 16 µM; against HA-MRSA (ATCC 33591) it was 32 µM; against E. faecalis (OG1RF) it was 63 µM; with E. coli (MC4100), 125 µM; against A. baumannii, 260 µM. Besides, the MIC with P. aeruginosa (PAO1) (PAO1, 72 h) is 125 µM. The molecule also registered a Lysis20 in the data set on red blood cells of 16 µM.
With `CCCCCCCC[P+](C)(C)CC[P+](C)(C)CCCCCCCC` [^MeP2P-8,8], the MIC with MSSA (SH1000) (setting [1]) was 125 µM; with CA-MRSA (USA300-0114) it was 125 µM; with HA-MRSA (ATCC 33591), 250 µM; in the data set with E. faecalis (OG1RF) it was greater than 250 µM; with E. coli (MC4100) it was greater than 250 µM; in the data set with A. baumannii, greater than 250 µM. In addition, in the data set with P. aeruginosa (PAO1) (setting [2]), the MIC was greater than 250 µM. In the data set on red blood cells, this molecule yielded a Lysis20 of 250 µM.
As to `CCCCCCCCC[P+](C)(C)CC[P+](C)(C)CCCCCCCCC` [^MeP2P-9,9], the MIC turned out to be 8 µM with MSSA (SH1000) (setting [1]); 8 µM against CA-MRSA (USA300-0114); 16 µM in the data set on HA-MRSA (ATCC 33591); 125 µM against E. faecalis (OG1RF); 125 µM against E. coli (MC4100); 250 µM against A. baumannii. Moreover, the MIC in the data set with P. aeruginosa (PAO1) (setting [2]) is greater than 250 µM. In the data set on red blood cells, the Lysis20 was found to be 250 µM.
Take `CCCCCCCCCC[P+](C)(C)CC[P+](C)(C)CCCCCCCCCC` [^MeP2P-10,10]: the MIC in the data set on MSSA (SH1000) (setting [1]) amounted to 2 µM; against CA-MRSA (USA300-0114) it was 2 µM; in the data set on HA-MRSA (ATCC 33591), 2 µM; in the data set on E. faecalis (OG1RF), 16 µM; with E. coli (MC4100), 16 µM; in the data set on A. baumannii it was 63 µM. In addition, in the data set with P. aeruginosa (PAO1) (setting [2]), the MIC amounted to 32 µM. In the data set with red blood cells, the Lysis20 turned out to be 63 µM.
